Series [1] has as its target T1, hGSTA1 (Homo sapiens, UniProt P08263).
T1 construct: purchased Novus NBP1-30307
T1 sequence (P08263 1-222): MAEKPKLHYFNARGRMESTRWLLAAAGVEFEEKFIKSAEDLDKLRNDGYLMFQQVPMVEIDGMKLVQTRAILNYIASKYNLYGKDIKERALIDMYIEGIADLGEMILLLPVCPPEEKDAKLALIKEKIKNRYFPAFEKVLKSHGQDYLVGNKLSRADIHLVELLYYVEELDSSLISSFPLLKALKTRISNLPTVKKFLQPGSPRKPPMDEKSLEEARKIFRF
Briefly: Glutathionylation of CDNB by recombinant hGSTA1 (CDNB-SG biosynthesis). Format: biochemical. The settings on record: for Inhibition of CDNB-SG biosynthesis: 1 and 10 μM 5,6α-EC or HA (FIG. 2c). The protocol: The mixture was incubated for 30 min at 30° C. and the reaction was stopped with 200 μl MeOH. Measurements were carried out spectrophotometrically at 345 nm (Am=8.5 mM^−1·cm^−1). The negative control corresponds to the same test performed in absence of hGSTA1.

For series [2], the target named is T1, hGSTA1. Briefly: CDO-SG biosynthesis by hGSTA1 (glutathionylation of 5,6α-EC). Format: biochemical. Conditions: for Inhibition of CDO-SG biosynthesis: 1 and 10 mM CDNB, 1 and 10 μM HA, 1 μM 5,6β-EC, 10 μM CT, OCDO, 27-HC or 22(R)-HC (FIG. 2g-h). The protocol:
(§1) The mixture was incubated for 30 minutes at 30° C., and the reaction was stopped by addition of 200 μl MeOH. After centrifugation 10 min at 18,000 g (4° C.), the supernatant was evaporated to dryness using a speed vac concentrator (Savant SP01010, Thermo scientific) and the residue was resuspended in 20 μl MeOH. Samples were spotted on HPTLC NanoSilgur 10×10 cm plates (Macherey Nagel, ref 811042) and developed using ethyl acetate/butanol/acetic acid/water (6:2:3:2) for CDO-SG and CH2Cl/MeOH/NH4OH 84:15:1 for DDA. Standards were co-spotted with samples. […] The radioactivity was quantified by liquid scintillation counting of the ethanol extract of the silica scraped at the retention factor (Rf) corresponding to authentic 5,6α-EC, CDO-SG or DDA standards.

Series [3] deals with T1, hGSTA1. Briefly: DDA biosynthesis by hGSTA1 (histaminylation of 5,6α-EC, DDAS activity). The settings on record: for Inhibition of DDA biosynthesis (DDAS): 10 mM CDNB, 1 μM 5,6β-EC or 10 μM CT, OCDO, 27-HC or 22(R)-HC (FIG. 3d-e). Format: biochemical. The procedure: as §1
The subject of a further series is LXR. The settings on record: endogenous LXR ligand; cited from earlier work.
Substrate in series [4]: NCCc1c[nH]cn1
The series is described as follows: purified protein, by the assay type. The settings on record: other: substrates 5,6α-EC + histamine, product DDA; pH 7.5; 30.0 °C.

Substrate in series [5]: N[C@@H](CCC(=O)N[C@@H](CS)C(=O)NCC(=O)O)C(=O)O
The series is described as follows: purified protein, by the assay type. The settings on record: other: substrates 5,6α-EC + GSH, product CDO-SG; pH 7.5; 30.0 °C.

The mark [6] stands for this setting: substrates 5,6α-EC + GSH, product CDO-SG, Table 1.
The mark [7] stands for this setting: substrates 5,6α-EC + histamine, product DDA, Table 1.

Entries after “also recorded” stand apart in the source; their conditions may differ.

The text below walks through data of US20170321283A1, “METHODS OF DIAGNOSING CANCER AND OF PREDICTING RESPONSE OF CANCER TO DENDROGENIN A TREATMENT” (INSERM (INSTITUT NATIONAL DE LA SANTÉ ET DE LA RECHERCHE …, priority 2014, published 2017).

In general, Km refers to the concentration of substrate that gives half-maximal velocity. With `CC(C)CCC[C@@H](C)[C@H]1CC[C@H]2[C@@H]3C[C@@H]4O[C@@]45C[C@@H](O)CC[C@]5(C)[C@H]3CC[C@]12C` [5,6α-EC, 5,6α-epoxy-cholesterol], at hGSTA1 [1], the “Inhibition of CDNB-SG biosynthesis” value is on record as “not inhibitors”. The “Vm^5,6-EC” value on hGSTA1 [2] (5,6-EC + GSH to CDO-SG) is 1.33 pmol·min^−1·mg prot; at hGSTA1 [2] (setting [6]), 1.33 pmol · min^−1 · mg.pr; at hGSTA1 [3] (setting [7]), 0.81 pmol · min^−1 · mg.pr. Further, the “higher affinity of hGSTA1 for 5,6-EC than for CDNB” value at hGSTA1 [2] (ratio of Km) came to 73 fold. For the same molecule, the Km was 0.44 µM at hGSTA1 [2] (substrates 5,6α-EC + GSH, product CDO-SG) and 0.28 µM on hGSTA1 [3] (substrates 5,6α-EC + histamine, product DDA). Moreover, the “catalytic efficiency higher to transform 5,6α-EC compared to CDNB” value on hGSTA1 [3] amounted to 60 fold. Also, the “Vm^5,6EC” value at hGSTA1 [3] (5,6-EC + HA to DDA) came out at 0.81 pmol·min^−1·mg prot.

Consider `CC(C)CCC[C@@H](C)[C@H]1CC[C@H]2[C@@H]3C[C@H]4O[C@]45C[C@@H](O)CC[C@]5(C)[C@H]3CC[C@]12C` [5,6β-EC, 5,6β-epoxy-cholesterol], for which the “Inhibition of CDO-SG biosynthesis” value at hGSTA1 [2] is on record as “potent inhibitors”. Besides, the “Inhibition of DDA biosynthesis (DDAS)” value at hGSTA1 [3] is “most potent inhibitor; also recorded: potent inhibitor”.

With `O=[N+]([O-])c1ccc(Cl)c([N+](=O)[O-])c1` [CDNB, 1-chloro-2,4-dinitrobenzene], the “Vm^CDNB” value on hGSTA1 [1] (CDNB + GSH to CDNB-SG) amounted to 274 μmol·min^−1·mg prot; on hGSTA1 [1] (substrates CDNB + GSH, product CDNB-S-G, Table 1) it was 274 µmol/min/mg. In addition, the Michaelis-Menten constant (Km) at hGSTA1 [1] (read-out: Km^CDNB, substrates CDNB + GSH, product CDNB-S-G) came out at 32.2 µM. Moreover, on hGSTA1 [2], the “Inhibition of CDO-SG biosynthesis” value is given as “did not inhibit”. Moreover, the “Inhibition of DDA biosynthesis (DDAS)” value on hGSTA1 [3] is “did not inhibit”.

`CC(C)CCC[C@@H](C)[C@H]1CC[C@H]2[C@@H]3C[C@@H](SC[C@H](NC(=O)CC[C@H](N)C(=O)O)C(=O)NCC(=O)O)[C@@]4(O)C[C@@H](O)CC[C@]4(C)[C@H]3CC[C@]12C` [CDO-SG, 3β,5α-dihydroxycholestan-6β-yl-S-glutathione]: the “weaker capacity to produce CDO-SG than to produce CDNB-SG” value at hGSTA1 [2] (ratio of maximum velocities) is 24.10^6 fold.

With `CC(C)CCC[C@@H](C)[C@H]1CC[C@H]2[C@@H]3C[C@@H](O)[C@@]4(O)C[C@@H](O)CC[C@]4(C)[C@H]3CC[C@]12C` [CT], the “Inhibition of CDO-SG biosynthesis” value on hGSTA1 [2] is on record as “potent inhibitors”.

For `CC(C)CCCC(C)[C@H]1CCC2C3C[C@@H](NCCc4cnc[nH]4)[C@@]4(O)C[C@@H](O)CC[C@]4(C)C3CC[C@@]21C` (some centres unmarked) [DDA, 5-hydroxy-6-[2-(1H-imidazol-4-yl)ethylamino]cholestan-3-ol], the “affinity for LXR” value in the series on LXR is “sub-μM”.

Broadly, the IC50 is the midpoint of a concentration-inhibition curve. In the case of `N[C@@H](CCC(=O)N[C@@H](CS)C(=O)NCC(=O)O)C(=O)O` [GSH, glutathione], the “Vm^GSH” value was 8.12 μmol·min^−1·mg prot at hGSTA1 [1] (CDNB + GSH to CDNB-SG) and 1.50 pmol · min^−1 · mg · pr on hGSTA1 [2] (setting [6]). In addition, the IC50 at hGSTA1 [3] (read-out: IC50, inhibition of the biosynthesis of DDA) is 52 µM.

Turning to `NCCc1c[nH]cn1` [HA, histamine], at hGSTA1 [1], the “Inhibition of CDNB-SG biosynthesis” value is given as “not inhibitors”. Moreover, the “Inhibition of CDO-SG biosynthesis” value on hGSTA1 [2] is “potent inhibitor”. The “catalytic efficiency higher to transform HA compared to GSH” value on hGSTA1 [3] turned out to be 60 fold. In addition, at hGSTA1 [3] (DDA biosynthesis versus CDO-SG biosynthesis), the “weaker Km for HA than for GSH” value stood at 135 fold. In addition, the “Vm^His” value at hGSTA1 [3] (setting [7]) is recorded as 0.66 pmol · min^−1 · mg · pr.

As for `CC(C)CCC[C@@H](C)[C@H]1CC[C@H]2[C@@H]3CC(=O)[C@@]4(O)C[C@@H](O)CC[C@]4(C)[C@H]3CC[C@]12C` [OCDO], the “Inhibition of CDO-SG biosynthesis” value on hGSTA1 [2] is recorded as “potent inhibitors”.

B1: hGSTA1 (Homo sapiens) (protein)
chain: T1 sequence (P08263 1-222)
As to B1, in series [4], the Km came to 0.35 µM and the Vmax turned out to be 0.66 pmol·min^−1·mg prot. Also, in series [5], the Km came out at 47 µM and the Vmax stood at 1.50 pmol·min^−1·mg prot.
